Data on three compounds can be found in patent publication US5847159A, “1-[ω-(3,4-dihydro-2-naphthalenyl)alkyl]-cyclic amine derivatives, process for preparing the same, and pharmaceutical composition containing the same” (priority 1995, dated 1998).

Series [1] deals with bladder contractions induced by stimulation of the pelvic nerve, central cut end. In words: Effect on the bladder contractions induced by stimulation of the pelvic nerve (central cut end). The series is classed as in vivo, Male Std-Wistar rats. The conditions noted are these: for Inhibitory rate on the contraction caused by the stimulation of the central cut end, 2 min. / Inhibitory rate on the contraction caused by the stimulation of the central cut end, 4 min. / Inhibitory rate on the contraction caused by the stimulation of the central cut end, 10 min. / Inhibitory rate on the contraction caused by the stimulation of the central cut end, 20 min.: 5 mg/kg i.v. (jugular vein), mean±SEM; for Inhibitory rate on the contraction caused by the stimulation of the central cut end, 2 min.: * p<0.05; for Inhibitory rate on the contraction caused by the stimulation of the central cut end, 4 min. / Inhibitory rate on the contraction caused by the stimulation of the central cut end, 20 min.: * p<0.05, ** <0.01; for Inhibitory rate on the contraction caused by the stimulation of the central cut end, 10 min.: ** <0.01; for Effect on contractions by stimulation of central cut end compared with peripheral cut end: 5 mg/kg i.v., rat. An excerpt: (§1) Effect on the bladder contractions induced by stimulation of the pelvic nerve
(§2) Male Std-Wistar rats weighing 250-350 g were used. Under urethane anesthesia (1 g/kg, i.p.), both ureters were tied and cut at the side of kidney after a mid line incision of the abdomen. When the peripheral end of the pelvic nerve was stimulated, one side of the pelvic nerve was cut. When the central cut end of the nerve was stimulated, one side of the pelvic nerve was cut like in the peripheral end stimulation after both the hypogastric nerves were cut. Then, the bladder was exposed, the cannula connected to a syringe and a pressure transducer was inserted into the bladder via a small incision at an apex of the dome, and the proximal urethra was then ligated. Fifteen minutes after the operation, warm saline solution of an amount (0.1-0.2 ml) being small enough not to cause rhythmic contraction was infused into the bladder using a syringe. The change of the intravesical pressure was recorded on a recorder via a pressure transducer. The pelvic nerve was stimulated at the peripheral cut end or the central one by a pair of platinum electrodes with pulse of 1 msec duration, 3 v strength and a frequency of 10 Hz (for peripheral) or 5 v strength and a frequency of 20 Hz (for central), for 5 seconds every 2 minutes. Test compounds dissolved in distilled water were injected at a dose of 5 mg/kg via the cannula inserted into the jugular vein.
(§3) Each value in the table is mean±standard error of mean in 3-4 animals.

The test system of a further series is Male ddY mice. Briefly: in vivo. The conditions noted are these: p.o.; mouse. An excerpt:
(§4) Male ddY mice weighing 18-25 g were used in groups of 5-15 animals. Test compounds suspended in 0.5% aqueous tragacanth solution were given orally, and the mortality was investigated for 7 days following administration.

The next series can be described thus: in vivo. The conditions noted are these: in vivo, po; mouse; 7 days; read-out: Acute toxicity LD50.
Excerpt: as §4

The test system of series [2] is rhythmic bladder contractions (micturition reflex). Briefly: Inhibitory effect on rhythmic bladder contractions (micturition reflex). The conditions noted are these: i.d., rat; for ED50: 2 h, two hours, read-out: ED50, inhibitory effect on contractile frequency; for Potency on frequency of rhythmic bladder contractions relative to inaperisone hydrochloride (Compound A): compared with Compound A. The series is classed as in vivo, Female Std-Wistar rats. Here is the method: Inhibitory effect on rhythmic bladder contractions (micturition reflex)
The experiment was carried out according to the method of Maggi, C. […] It is generally accepted that the rhythmic bladder contractions evoked by instillation of saline solution into the bladder are mediated via the micturition reflex pathway like that of natural urination.
Female Std-Wistar rats weighing 160-190 g were used in groups of 3-4 animals. Under urethane anesthesia (1 g/kg, s.c.), both ureters were tied and cut at the side of kidney after a mid line incision of the abdomen. A cannula, connected to a syringe and a pressure transducer, was inserted into the bladder via the external urethral orifice and ligated around the proximal urethra. The animal was allowed to stay for about 30 minutes after the operation. The bladder was slowly filled with warm saline solution (0.4-1 ml) by means of a syringe until rhythmic contractions were induced. The change of the intravesical pressure was recorded on a recorder via a pressure transducer. After the rhythmic contractions became constant, test compounds dissolved or suspended in 0.5% aqueous tragacanth solution were administered via the cannula inserted for intraduodenal administration. The effect of each compound on the contractile frequency was investigated every 15 minutes till two hours after the administration.
The inhibitory rate on the contractile frequency (two hours) was expressed as the mean value of the inhibitory rates at an every 15-minute interval for two hours after the administration, which was determined based on the contractile frequency for 15 minutes before the administration.

Series [3] concerns polysynaptic spinal reflex. Briefly: Inhibitory effect on polysynaptic spinal reflex. Format: in vivo, Male Std-Wistar rats. The conditions noted are these: rat; for Inhibitory effect on spinal reflex compared with Compound A: i.v.; for ED50: iv, read-out: Inhibitory effect on polysynaptic spinal reflex, ID50. Here is the method:
Inhibitory effect on polysynaptic spinal reflex
The experiment was performed according to the method of Itoh, et al. [Japan J. Parmacol.,23, 1125 (1982)]. Male Std-Wistar rats weighing 250-350 g were used in groups of 4-6 animals. Under anesthesia with combined i.p. injection of urethane (400 mg/kg) and α-chloralose (50 mg/kg), the rat fixed in a stereotaxic apparatus was clamped at the spine and tibial bane. A concentric needle electrode was inserted into the left gastrocnemius muscle, and the central end of the ipsilateral common peroneal nerve at the same side was supramaximally stimulated by an electrical stimulator (rectangular pulse,0.1 msec,0.1 Hz). Test compounds dissolved in distilled water were injected via a cannula inserted into the right femoral vein, and the evoked electromyogram was periodically recorded (2, 5, 10, 20 and 30 minutes after the injection). […] The results are shown in Table 5 along with the results of Experiments 3 and 5.

Series [4] relates to bladder contractions induced by stimulation of the pelvic nerve, peripheral cut end. In words: Effect on the bladder contractions induced by stimulation of the pelvic nerve (peripheral cut end). The conditions noted are these: 5 mg/kg i.v. (jugular vein), mean±SEM; for Inhibitory rate on the contraction caused by the stimulation of the peripheral cut end, 10 min. / Inhibitory rate on the contraction caused by the stimulation of the peripheral cut end, 20 min.: * p<0.05. Format: in vivo, Male Std-Wistar rats.
Excerpt: as §1, §2, §3

Series [5] has as its system rhythmic bladder contractions (micturition reflex). In words: Inhibitory effect on rhythmic bladder contractions (micturition reflex). Format: in vivo, Female Std-Wistar rats. The conditions noted are these: judged from Experiments 1, 3, 4 and 5.
In a further series the test system is exploratory behavior. In words: Inhibitory effect on exploratory behavior. Format: in vivo, Male Std-Wistar rats. The conditions noted are these: 500 mg/kg p.o., rat; for Inhibitory rate, exploratory behavior: one hour after administration. Here is the method: Inhibitory effect on exploratory behavior
Male Std-Wistar rats weighing 150-200 g were used in groups of 5 animals. One hour after oral administration of test compounds suspended in 0.5% aqueous tragacanth solution, animals were individually placed in a test cage (23×35×30 cm) on an Animex activity meter (Farad Co., Sweden). Immediately thereafter, locomotor counting was started and lasted for three minutes. The mean value of the exploratory behavior (count/3 minutes) in the test compound-treated groups were determined, and then inhibitory effect of each test compound was calculated as compared with that of the control group (0.5% aqueous tragacanth solution-treated group). The results are shown in Table 5 along with the results of Experiments 4 and 5.

For `Cc1cc2c(cc1C)CCC(CCN1CCCCC1)=C2` [Ex. 43, 1-[2-(3,4-dihydro-6,7-dimethyl-2-naphthalenyl)ethyl]piperidine], in series [1], the “Inhibitory rate on the contraction caused by the stimulation of the central cut end, 2 min.” value (from here on “Inhibitory rate … of the central cut end, 2 min.”) came to 6.0 ± 10.8%; the “Inhibitory rate on the contraction caused by the stimulation of the central cut end, 4 min.” value (shortened to “Inhibitory rate … of the central cut end, 4 min.”) turned out to be 22.8 ± 9.7%; the “Inhibitory rate on the contraction caused by the stimulation of the central cut end, 10 min.” value stood at 28.3 ± 4.0%; the “Inhibitory rate on the contraction caused by the stimulation of the central cut end, 20 min.” value is reported as 37.3 ± 5.0%. Further, in series [1], the “Effect on contractions by stimulation of central cut end compared with peripheral cut end” value (“Effect … compared with peripheral cut end” below) was “more potent than those on the contractions induced by the stimulation of peripheral cut end”. Further, the “Acute toxicity compared with Compound A” value in the series on Male ddY mice was “about twice lower than that of Compound A”. In addition, the LD50 at 168 h in the series “in vivo” was determined as 1040 mg/kg. Further, in series [2], the ED50 came out at 11.1 mg/kg and the “Potency on frequency of rhythmic bladder contractions relative to inaperisone hydrochloride (Compound A)” value is around 3 times more potent. For the same compound, in series [3], the “Inhibitory effect on spinal reflex compared with Compound A” value was “nearly equal to that of Compound A” and the ED50 was determined as 3.82 mg/kg. Further, in series [4], the “Inhibitory rate on the contraction caused by the stimulation of the peripheral cut end, 2 min.” value was found to be 2.4 ± 3.3%; the “Inhibitory rate on the contraction caused by the stimulation of the peripheral cut end, 4 min.” value stood at 5.8 ± 6.3%; the “Inhibitory rate on the contraction caused by the stimulation of the peripheral cut end, 10 min.” value was 6.3 ± 8.1%; the “Inhibitory rate on the contraction caused by the stimulation of the peripheral cut end, 20 min.” value is 17.2 ± 12.2%. Moreover, the “Separation of effect on micturition reflex from side effects (central depression, inhibition of spinal reflex) and toxicity, in comparison with Compound A” value in series [5] is given as “extremely separated from side effects”. In addition, in the series with exploratory behavior, the “Inhibitory rate, exploratory behavior” value was found to be 20.0% and the “Inhibitory effect on exploratory behavior compared with Compound A” value was “almost equal to that of Compound A”.
Turning to `Fc1cccc2c1CCC(CCN1CCCC1)=C2` [Ex. 1, 1-[2-(5-fluoro-3,4-dihydro-2-naphthalenyl)ethyl]-pyrrolidine], in series [1], the “Inhibitory rate … of the central cut end, 2 min.” value is recorded as 26.3 ± 10.0%; the “Inhibitory rate … of the central cut end, 4 min.” value was 27.6 ± 5.6%; the “Inhibitory rate on the contraction caused by the stimulation of the central cut end, 10 min.” value came out at 36.8 ± 10.1%; the “Inhibitory rate on the contraction caused by the stimulation of the central cut end, 20 min.” value is 44.1 ± 5.8%. For the same compound, the “Effect … compared with peripheral cut end” value in series [1] was “more potent than those on the contractions induced by the stimulation of peripheral cut end”. Also, the “Acute toxicity compared with Compound A” value with Male ddY mice is recorded as “also lower than that of Compound A”. Further, the LD50 at 168 h in the series “in vivo” is 556 mg/kg. Moreover, in series [2], the ED50 was 4.3 mg/kg and the “Potency on frequency of rhythmic bladder contractions relative to inaperisone hydrochloride (Compound A)” value is given as “about 8 times more potent”. Moreover, in series [3], the “Inhibitory effect on spinal reflex compared with Compound A” value is “much weaker than that of Compound A” and the ED50 was above 10 mg/kg. For the same compound, in series [4], the “Inhibitory rate on the contraction caused by the stimulation of the peripheral cut end, 2 min.” value was found to be 4.4 ± 4.4%; the “Inhibitory rate on the contraction caused by the stimulation of the peripheral cut end, 4 min.” value is reported as 3.4 ± 4.4%; the “Inhibitory rate on the contraction caused by the stimulation of the peripheral cut end, 10 min.” value worked out at 3.2 ± 7.5%; the “Inhibitory rate on the contraction caused by the stimulation of the peripheral cut end, 20 min.” value is recorded as 9.6 ± 8.6%. Moreover, the “Separation of effect on micturition reflex from side effects (central depression, inhibition of spinal reflex) and toxicity, in comparison with Compound A” value in series [5] is given as “extremely separated from side effects”. In addition, in the series on exploratory behavior, the “Inhibitory rate, exploratory behavior” value is 16.2% and the “Inhibitory effect on exploratory behavior compared with Compound A” value is given as “less potent than that of Compound A”.
Consider `Cc1cc2c(cc1C)CCC(CCN1CCCC1)=C2` [Ex. 2, 1-[2-(3,4-dihydro-6,7-dimethyl-2-naphthalenyl)ethyl]-pyrrolidine], for which, in series [1], the “Inhibitory rate … of the central cut end, 2 min.” value was 13.3 ± 5.1%; the “Inhibitory rate … of the central cut end, 4 min.” value is reported as 17.7 ± 2.8%; the “Inhibitory rate on the contraction caused by the stimulation of the central cut end, 10 min.” value was found to be 25.6 ± 3.7%; the “Inhibitory rate on the contraction caused by the stimulation of the central cut end, 20 min.” value amounted to 24.9 ± 4.1%. In addition, the “Effect … compared with peripheral cut end” value in series [1] is recorded as “more potent than those on the contractions induced by the stimulation of peripheral cut end”. The “Acute toxicity compared with Compound A” value in the series on Male ddY mice was “also lower than that of Compound A”. Moreover, the LD50 at 168 h in the series “in vivo” worked out at 620 mg/kg. Also, in series [2], the ED50 was 4.4 mg/kg, the “Effect on the amplitude of contraction” value is “suppressed the amplitude of contraction” and the “Potency on frequency of rhythmic bladder contractions relative to inaperisone hydrochloride (Compound A)” value is on record as “about 8 times more potent”. For the same compound, in series [3], the “Inhibitory effect on spinal reflex compared with Compound A” value is listed as “much weaker than that of Compound A” and the ED50 is above 8 mg/kg. In series [4], the “Inhibitory rate on the contraction caused by the stimulation of the peripheral cut end, 2 min.” value is reported as 0.4 ± 5.2%; the “Inhibitory rate on the contraction caused by the stimulation of the peripheral cut end, 4 min.” value was determined as 16.3 ± 7.0%; the “Inhibitory rate on the contraction caused by the stimulation of the peripheral cut end, 10 min.” value turned out to be 13.7 ± 4.5%; the “Inhibitory rate on the contraction caused by the stimulation of the peripheral cut end, 20 min.” value was 19.0 ± 7.5%. Moreover, the “Separation of effect on micturition reflex from side effects (central depression, inhibition of spinal reflex) and toxicity, in comparison with Compound A” value in series [5] was “extremely separated from side effects”. Moreover, in the series with exploratory behavior, the “Inhibitory rate, exploratory behavior” value is recorded as 0% and the “Inhibitory effect on exploratory behavior compared with Compound A” value was “less potent than that of Compound A”.
